Results taken from ChEMBL document CHEMBL4706554 (Eur J Med Chem, 2020).
Calls of active or inactive are those of the source.

What was measured:
[1] = system: OVCAR-4; test: Cytotoxicity against human OVCAR-4 cells assessed as cell growth inhibition at 10 uM incubated for 48 hrs by SRB assay; type: functional, cell-based
[2] = system: NCI-H226; test: Cytotoxicity against human NCI-H226 cells assessed as cell growth inhibition at 10 uM incubated for 48 hrs by SRB assay; type: functional, cell-based
[3] = system: SF-268; test: Cytotoxicity against human SF-268 cells assessed as cell growth inhibition at 10 uM incubated for 48 hrs by SRB assay; type: functional, cell-based
[4] = system: CCRF-CEM; test: Cytotoxicity against human CCRF-CEM cells assessed as cell growth inhibition at 10 uM incubated for 48 hrs by SRB assay; type: functional, cell-based
[5] = system: RXF 393; test: Cytotoxicity against human RXF 393 cells assessed as cell growth inhibition at 10 uM incubated for 48 hrs by SRB assay; type: functional, cell-based
[6] = system: MDA-MB-435; test: Cytotoxicity against human MDA-MB-435 cells assessed as cell growth inhibition at 10 uM incubated for 48 hrs by SRB assay; type: functional, cell-based
[7] = system: Hs-578T; test: Cytotoxicity against human Hs-578T cells assessed as cell growth inhibition at 10 uM incubated for 48 hrs by SRB assay; type: functional, cell-based
[8] = system: A549; test: Cytotoxicity against human A549 cells assessed as cell growth inhibition at 10 uM incubated for 48 hrs by SRB assay; type: functional, cell-based
[9] = system: SF-539; test: Cytotoxicity against human SF-539 cells assessed as cell growth inhibition at 10 uM incubated for 48 hrs by SRB assay; type: functional, cell-based
[10] = system: Malme-3M; test: Cytotoxicity against human Malme-3M cells assessed as cell growth inhibition at 10 uM incubated for 48 hrs by SRB assay; type: functional, cell-based
[11] = system: SR; test: Cytotoxicity against human SR cells assessed as cell growth inhibition at 10 uM incubated for 48 hrs by SRB assay; type: functional, cell-based
[12] = system: MDA-MB-468; test: Cytotoxicity against human MDA-MB-468 cells assessed as cell growth inhibition at 10 uM incubated for 48 hrs by SRB assay; type: functional, cell-based
[13] = system: SK-MEL-28; test: Cytotoxicity against human SK-MEL-28 cells assessed as cell growth inhibition at 10 uM incubated for 48 hrs by SRB assay; type: functional, cell-based
[14] = system: COLO 205; test: Cytotoxicity against human COLO 205 cells assessed as cell growth inhibition at 10 uM incubated for 48 hrs by SRB assay; type: functional, cell-based
[15] = system: UACC-62; test: Cytotoxicity against human UACC-62 cells assessed as cell growth inhibition at 10 uM incubated for 48 hrs by SRB assay; type: functional, cell-based
[16] = system: CAKI-1; test: Cytotoxicity against human CAK1 cells assessed as cell growth inhibition at 10 uM incubated for 48 hrs by SRB assay; type: functional, cell-based
[17] = system: EKVX; test: Cytotoxicity against human EKVX cells assessed as cell growth inhibition at 10 uM incubated for 48 hrs by SRB assay; type: functional, cell-based
[18] = system: LOX IMVI; test: Cytotoxicity against human LOX IMVI cells assessed as cell growth inhibition at 10 uM incubated for 48 hrs by SRB assay; type: functional, cell-based
[19] = system: DU-145; test: Cytotoxicity against human DU-145 cells assessed as cell growth inhibition at 10 uM incubated for 48 hrs by SRB assay; type: functional, cell-based
[20] = system: 786-0; test: Cytotoxicity against human 786-0 cells assessed as cell growth inhibition at 10 uM incubated for 48 hrs by SRB assay; type: functional, cell-based
[21] = system: SW-620; test: Cytotoxicity against human SW-620 cells assessed as cell growth inhibition at 10 uM incubated for 48 hrs by SRB assay; type: functional, cell-based
[22] = system: K562; test: Cytotoxicity against human K562 cells assessed as cell growth inhibition at 10 uM incubated for 48 hrs by SRB assay; type: functional, cell-based
[23] = system: SNB-19; test: Cytotoxicity against human SNB-19 cells assessed as cell growth inhibition at 10 uM incubated for 48 hrs by SRB assay; type: functional, cell-based
[24] = system: NCI-H322M; test: Cytotoxicity against human NCI-H322M cells assessed as cell growth inhibition at 10 uM incubated for 48 hrs by SRB assay; type: functional, cell-based
[25] = system: MOLT-4; test: Cytotoxicity against human MOLT-4 cells assessed as cell growth inhibition at 10 uM incubated for 48 hrs by SRB assay; type: functional, cell-based
[26] = system: HOP-62; test: Cytotoxicity against human HOP-62 cells assessed as cell growth inhibition at 10 uM incubated for 48 hrs by SRB assay; type: functional, cell-based
[27] = system: RPMI-8226; test: Cytotoxicity against human RPMI-8226 cells assessed as cell growth inhibition at 10 uM incubated for 48 hrs by SRB assay; type: functional, cell-based
[28] = system: NCI-H23; test: Cytotoxicity against human NCI-H23 cells assessed as cell growth inhibition at 10 uM incubated for 48 hrs by SRB assay; type: functional, cell-based
[29] = system: NCI-H460; test: Cytotoxicity against human NCI-H460 cells assessed as cell growth inhibition at 10 uM incubated for 48 hrs by SRB assay; type: functional, cell-based
[30] = system: KM12; test: Cytotoxicity against human KM12 cells assessed as cell growth inhibition at 10 uM incubated for 48 hrs by SRB assay; type: functional, cell-based
[31] = system: T47D; test: Cytotoxicity against human T47D cells assessed as cell growth inhibition at 10 uM incubated for 48 hrs by SRB assay; type: functional, cell-based
[32] = system: TK-10; test: Cytotoxicity against human TK-10 cells assessed as cell growth inhibition at 10 uM incubated for 48 hrs by SRB assay; type: functional, cell-based
[33] = system: SK-MEL-5; test: Cytotoxicity against human SK-MEL-5 cells assessed as cell growth inhibition at 10 uM incubated for 48 hrs by SRB assay; type: functional, cell-based
[34] = system: BT-549; test: Cytotoxicity against human BT-549 cells assessed as cell growth inhibition at 10 uM incubated for 48 hrs by SRB assay; type: functional, cell-based
[35] = system: UACC-257; test: Cytotoxicity against human UACC-257 cells assessed as cell growth inhibition at 10 uM incubated for 48 hrs by SRB assay; type: functional, cell-based
[36] = molecular target: Dual specificity tyrosine-phosphorylation-regulated kinase 1A (Homo sapiens) (UniProt Q13627); test: Inhibition of wild-type human partial length DYRK1A (H129 to S509 residues) expressed in mammalian expression system at 1 uM by Kinomescan method
[37] = system: SN12C; test: Cytotoxicity against human SN12C cells assessed as cell growth inhibition at 10 uM incubated for 48 hrs by SRB assay; type: functional, cell-based
[38] = molecular target: Homeodomain-interacting protein kinase 1 (Homo sapiens) (UniProt Q86Z02); test: Inhibition of wild-type human partial length HIPK1 (M146 to I555 residues) expressed in mammalian expression system at 1 uM by Kinomescan method
Chain of Homeodomain-interacting protein kinase 1 (Homo sapiens) (Q86Z02 whole entry, looked up, the tested form may be a part): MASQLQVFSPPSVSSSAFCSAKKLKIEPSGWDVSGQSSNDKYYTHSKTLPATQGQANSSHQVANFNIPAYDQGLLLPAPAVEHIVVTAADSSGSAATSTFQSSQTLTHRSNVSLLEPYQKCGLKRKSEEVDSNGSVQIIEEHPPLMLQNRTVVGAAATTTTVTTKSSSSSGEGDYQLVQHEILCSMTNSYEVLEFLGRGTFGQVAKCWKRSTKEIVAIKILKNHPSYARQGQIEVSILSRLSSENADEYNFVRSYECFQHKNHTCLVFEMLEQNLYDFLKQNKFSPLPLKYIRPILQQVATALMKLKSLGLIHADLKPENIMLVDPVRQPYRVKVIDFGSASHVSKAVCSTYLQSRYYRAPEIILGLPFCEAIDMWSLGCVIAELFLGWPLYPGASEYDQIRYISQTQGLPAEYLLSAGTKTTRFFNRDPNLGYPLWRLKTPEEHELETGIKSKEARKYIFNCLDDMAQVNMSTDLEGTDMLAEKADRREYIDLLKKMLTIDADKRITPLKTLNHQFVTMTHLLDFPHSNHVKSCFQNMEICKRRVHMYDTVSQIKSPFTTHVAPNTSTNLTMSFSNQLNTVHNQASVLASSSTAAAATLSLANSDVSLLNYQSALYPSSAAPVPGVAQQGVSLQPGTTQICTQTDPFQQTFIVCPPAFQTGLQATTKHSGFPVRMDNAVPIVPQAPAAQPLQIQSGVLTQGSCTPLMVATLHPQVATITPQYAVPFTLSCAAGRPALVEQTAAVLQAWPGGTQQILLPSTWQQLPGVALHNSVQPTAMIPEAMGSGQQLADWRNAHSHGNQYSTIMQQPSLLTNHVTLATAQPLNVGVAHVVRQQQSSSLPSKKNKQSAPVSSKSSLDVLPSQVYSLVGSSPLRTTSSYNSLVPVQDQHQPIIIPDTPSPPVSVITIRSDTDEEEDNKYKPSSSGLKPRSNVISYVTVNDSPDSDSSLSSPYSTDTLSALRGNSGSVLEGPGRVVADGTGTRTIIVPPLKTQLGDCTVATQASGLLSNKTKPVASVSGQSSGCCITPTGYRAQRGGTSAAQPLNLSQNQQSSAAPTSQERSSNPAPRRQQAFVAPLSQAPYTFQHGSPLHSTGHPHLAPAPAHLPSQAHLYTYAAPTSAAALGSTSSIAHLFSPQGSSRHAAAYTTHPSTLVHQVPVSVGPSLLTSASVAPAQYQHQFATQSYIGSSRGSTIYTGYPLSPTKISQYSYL

[39] = system: U-251; test: Cytotoxicity against human U251 cells assessed as cell growth inhibition at 10 uM incubated for 48 hrs by SRB assay; type: functional, cell-based
[40] = system: NCI-H522; test: Cytotoxicity against human NCI-H522 cells assessed as cell growth inhibition at 10 uM incubated for 48 hrs by SRB assay; type: functional, cell-based
[41] = system: SNB-75; test: Cytotoxicity against human SNB-75 cells assessed as cell growth inhibition at 10 uM incubated for 48 hrs by SRB assay; type: functional, cell-based
[42] = system: M14; test: Cytotoxicity against human M14 cells assessed as cell growth inhibition at 10 uM incubated for 48 hrs by SRB assay; type: functional, cell-based
[43] = system: SK-OV-3; test: Cytotoxicity against human SK-OV-3 cells assessed as cell growth inhibition at 10 uM incubated for 48 hrs by SRB assay; type: functional, cell-based
[44] = system: PC-3; test: Cytotoxicity against human PC-3 cells assessed as cell growth inhibition at 10 uM incubated for 48 hrs by SRB assay; type: functional, cell-based
[45] = system: MCF7; test: Cytotoxicity against human MCF7 cells assessed as cell growth inhibition at 10 uM incubated for 48 hrs by SRB assay; type: functional, cell-based
[46] = system: HL-60(TB); test: Cytotoxicity against human HL-60(TB) cells assessed as cell growth inhibition at 10 uM incubated for 48 hrs by SRB assay; type: functional, cell-based
[47] = system: OVCAR-5; test: Cytotoxicity against human OVCAR-5 cells assessed as cell growth inhibition at 10 uM incubated for 48 hrs by SRB assay; type: functional, cell-based
[48] = system: MDA-MB-231; test: Cytotoxicity against human MDA-MB-231 cells assessed as cell growth inhibition at 10 uM incubated for 48 hrs by SRB assay; type: functional, cell-based
[49] = system: HOP-92; test: Cytotoxicity against human HOP-92 cells assessed as cell growth inhibition at 10 uM incubated for 48 hrs by SRB assay; type: functional, cell-based
[50] = system: HCT-116; test: Cytotoxicity against human HCT-116 cells assessed as cell growth inhibition at 10 uM incubated for 48 hrs by SRB assay; type: functional, cell-based
[51] = system: A498; test: Cytotoxicity against human A498 cells assessed as cell growth inhibition at 10 uM incubated for 48 hrs by SRB assay; type: functional, cell-based
[52] = system: ACHN; test: Cytotoxicity against human ACHN cells assessed as cell growth inhibition at 10 uM incubated for 48 hrs by SRB assay; type: functional, cell-based
[53] = system: NCI/ADR-RES; test: Cytotoxicity against human NCI/ADR-RES cells assessed as cell growth inhibition at 10 uM incubated for 48 hrs by SRB assay; type: functional, cell-based
[54] = system: IGROV-1; test: Cytotoxicity against human IGROV-1 cells assessed as cell growth inhibition at 10 uM incubated for 48 hrs by SRB assay; type: functional, cell-based
[55] = system: OVCAR-8; test: Cytotoxicity against human OVCAR-8 cells assessed as cell growth inhibition at 10 uM incubated for 48 hrs by SRB assay; type: functional, cell-based
[56] = system: OVCAR-3; test: Cytotoxicity against human OVCAR-3 cells assessed as cell growth inhibition at 10 uM incubated for 48 hrs by SRB assay; type: functional, cell-based
[57] = system: HCC 2998; test: Cytotoxicity against human HCC 2998 cells assessed as cell growth inhibition at 10 uM incubated for 48 hrs by SRB assay; type: functional, cell-based
[58] = system: SK-MEL-2; test: Cytotoxicity against human SK-MEL-2 cells assessed as cell growth inhibition at 10 uM incubated for 48 hrs by SRB assay; type: functional, cell-based
[59] = system: HT-29; test: Cytotoxicity against human HT-29 cells assessed as cell growth inhibition at 10 uM incubated for 48 hrs by SRB assay; type: functional, cell-based
[60] = system: SF-295; test: Cytotoxicity against human SF-295 cells assessed as cell growth inhibition at 10 uM incubated for 48 hrs by SRB assay; type: functional, cell-based
[61] = system: UO-31; test: Cytotoxicity against human UO-31 cells assessed as cell growth inhibition at 10 uM incubated for 48 hrs by SRB assay; type: functional, cell-based
[62] = system: HCT-15; test: Cytotoxicity against human HCT-15 cells assessed as cell growth inhibition at 10 uM incubated for 48 hrs by SRB assay; type: functional, cell-based
[63] = molecular target: T1, Casein kinase II subunit alpha' (Homo sapiens, UniProt P19784); test: Displacement of fluorescent tracer from full-length human C-terminal NanoLuc-tagged CK2alpha' expressed in HEK293T permeabilized cells measured after 2 hrs by NanoBRET assay; type: cell-based
T1 sequence (P19784 whole entry): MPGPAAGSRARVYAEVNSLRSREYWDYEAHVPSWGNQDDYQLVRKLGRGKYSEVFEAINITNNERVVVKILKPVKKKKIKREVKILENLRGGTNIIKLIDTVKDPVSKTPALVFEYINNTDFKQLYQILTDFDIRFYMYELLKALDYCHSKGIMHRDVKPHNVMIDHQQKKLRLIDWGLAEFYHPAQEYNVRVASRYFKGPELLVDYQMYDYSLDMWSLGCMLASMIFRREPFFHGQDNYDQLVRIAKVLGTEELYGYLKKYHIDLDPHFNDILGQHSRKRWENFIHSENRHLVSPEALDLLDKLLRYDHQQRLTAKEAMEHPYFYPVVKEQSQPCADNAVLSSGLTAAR

[64] = molecular target: T2, Casein kinase II subunit alpha (Homo sapiens, UniProt P68400); test: Displacement of fluorescent tracer from full-length human C-terminal NanoLuc-tagged CK2alpha expressed in HEK293T permeabilized cells measured after 2 hrs by NanoBRET assay; type: cell-based
T2 sequence (P68400 whole entry): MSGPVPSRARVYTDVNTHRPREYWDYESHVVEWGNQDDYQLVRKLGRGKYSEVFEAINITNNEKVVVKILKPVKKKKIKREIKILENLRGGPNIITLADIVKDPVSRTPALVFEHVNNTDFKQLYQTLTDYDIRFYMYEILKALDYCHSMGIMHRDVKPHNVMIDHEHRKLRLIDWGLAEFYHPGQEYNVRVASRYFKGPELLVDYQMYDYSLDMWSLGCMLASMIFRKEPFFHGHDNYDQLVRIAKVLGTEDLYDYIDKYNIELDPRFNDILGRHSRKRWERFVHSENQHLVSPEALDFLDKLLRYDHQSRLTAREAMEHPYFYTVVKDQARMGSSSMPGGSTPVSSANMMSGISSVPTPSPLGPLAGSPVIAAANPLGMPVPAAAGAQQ

[65] = molecular target: T1, Casein kinase II subunit alpha'; test: Displacement of fluorescent tracer from full-length human C-terminal NanoLuc-tagged CK2alpha' expressed in HEK293T cells measured after 2 hrs by NanoBRET assay; type: cell-based
[66] = molecular target: T2, Casein kinase II subunit alpha; test: Displacement of fluorescent tracer from full-length human C-terminal NanoLuc-tagged CK2alpha expressed in HEK293T cells measured after 2 hrs by NanoBRET assay; type: cell-based

CC(C)(C)OC(=O)N(CCOCCO)c1ccn2ncc(-c3ccc(C(=O)O)c(O)c3)c2n1
inactive: Activity [1] | Activity [2] | Activity [3] | Activity [4] | Activity [5] | Activity [6] | Activity [7] | Activity [8] | Activity [9] | Activity [10] | Activity [11] | Activity [12] | Activity [13] | Activity [14] | Activity [15] | Activity [16] | Activity [17] | Activity [18] | Activity [19] | Activity [20] | Activity [21] | Activity [22] | Activity [23] | Activity [24] | Activity [25] | Activity [26] | Activity [27] | Activity [28] | Activity [29] | Activity [30] | Activity [31] | Activity [32] | Activity [33] | Activity [34] | Activity [35] | inhibition [36] | Activity [37] | inhibition [38] | Activity [39] | Activity [40] | Activity [41] | Activity [42] | Activity [43] | Activity [44] | Activity [45] | Activity [46] | Activity [47] | Activity [48] | Activity [49] | Activity [50] | Activity [51] | Activity [52] | Activity [53] | Activity [54] | Activity [55] | Activity [56] | Activity [57] | Activity [58] | Activity [59] | Activity [60] | Activity [61] | Activity [62]

CC(C)(C)OC(=O)N1CCOCCOc2cc(ccc2C(=O)O)-c2cnn3ccc1nc23
0.771 µM: IC50 [63]

COC(=O)c1ccc(-c2cnn3ccc(N(CCOCCO)C(=O)OC(C)(C)C)nc23)cc1O
> 50 µM: IC50 [65] | IC50 [66] | IC50 [63]
7.52 µM: IC50 [64]
